# In article PMC10975527 (Viruses, 2024):
# Where two headings read alike, the source gives them in different places.
# Key:
# HBV [1] = assay: HBV-infected primary human hepatocytes (PHH) antiviral assay; format: cell-based; conditions: Hepatitis B virus, Hepatocyte, genotype D
# [2] = Cytotoxicity in HepG2-hNTCP cells; format: cell-based; conditions: human, HBV-infected HepG2-hNTCP-C4 cells
# [3] = tested on: HBsAg with wildtype HBV PRE; assay: HBV PRE variant phenotyping in Huh-7: wild-type PRE plasmid (HBsAg); format: cell-based; conditions: Hepatitis B virus, Huh-7, 120 h, read-out: HBsAg EC50
# HBV pgRNA and preS/S RNA = assay: Kinetics of HBV RNA degradation in HepAD38 cells (Northern blot); format: cell-based, hepatitis B virus; conditions: HepAD38, GLS4 + AB-161 (100 nM)
# in vitro = in vitro ADME; conditions: rat, plasma
# HBV [4] = assay: Effective concentration mediating 90% inhibition (EC90), system not given; format: cell-based; conditions: Hepatitis B virus; used for comparison with unbound concentrations; cell system not stated
# Beagle dogs = assay: 13-week repeat-dose toxicity study in dogs; format: in vivo; parameters: key to Testis: Degeneration/Atrophy, Minimal, incidence / Testis: Degeneration/Atrophy, Mild, incidence / Testis: Degeneration/Atrophy, Moderate, incidence / Epididymis: Cellular debris, Minimal, incidence / Epididymis: Cellular debris, Mild, incidence / Epididymis: Cellularity, decreased; sperm, Minimal, incidence / Epididymis: Cellularity, decreased; sperm, Mild, incidence / Epididymis: Cellularity, decreased; sperm, Marked, incidence: - = no AB-161-related findings
# [5] = tested on: panel of RNA and DNA viruses; assay: Antiviral selectivity against a panel of RNA and DNA viruses (summary); format: cell-based
# DENV2 = assay: Antiviral selectivity panel: DENV2; format: cell-based, dengue virus type 2; conditions: Dengue virus, DENV2, BHK-21, in Mesocricetus auratus; BHK21 (hamster kidney)
# HSV-1/HSV-2 = assay: Antiviral selectivity panel: HSV-1/HSV-2; format: cell-based, herpes simplex virus-1/herpes simplex virus-2; conditions: MRC5; MRC-5 (human lung)
# [6] = male, C57BL/6J, mouse, in vivo, 24 h
# [7] = male dogs, 10 mg/kg/day, end of main study (days 97–100)
# [8] = male dogs, 10 mg/kg/day, end of main study, 4 examined
# [9] = male dogs, 30 mg/kg/day, end of main study (days 97–100)
# [10] = male dogs, 30 mg/kg/day, end of main study, 3 examined
# [11] = male dogs, 100 mg/kg/day, end of main study (days 97–100)
# [12] = male dogs, 100 mg/kg/day, end of main study, 4 examined
# [13] = male dogs, 100 mg/kg/day, end of recovery (Day 120)
# [14] = male dogs, 100 mg/kg/day, end of recovery (Day 120), 2 examined
smiles,measurement,setting,value
COc1cc(OC(F)F)c2nc3c(n2c1)C[C@@H](C(C)(C)C)c1cc(C(=O)O)c(=O)[nH]c1-3 [AB-161],EC50,HBV [1]; read-out: HBV RNA EC50 (converted),9.6 nM
same,EC50,HBV [1]; read-out: HBeAg EC50 (converted),11.9 nM
same,EC50,HBV [1]; read-out: HBsAg EC50,8.5 ± 4.7 nM
same,CC50,[2],> 10000 nM
same,EC50,[3],2.5 nM
same,levels of pgRNA and preS/S RNA,HBV pgRNA and preS/S RNA; 8 h and 16 h post-treatment,substantially reduced
same,migration of pgRNA and preS/S RNA (shortening of the viral transcripts),HBV pgRNA and preS/S RNA; starting at 2 h post-treatment,faster migration
same,"fraction unbound at 6 h, 500 ng/mL",in vitro,0.056
same,EC90,HBV [4],0.0128 µg/mL
same,motor nerve conduction,Beagle dogs; dogs,No differences from baseline or time-matched controls
same,animals with persisting peroneal sensory NCV delays,"Beagle dogs; dogs, 100 mg/kg/day recovery cohort, day 119",2 of 4
same,animals with peroneal sensory NCV delays,"Beagle dogs; dogs, 100 mg/kg/day, days 71 to 72",4 of 12
same,"food consumption, electrocardiography, neurological examinations, urinalysis","Beagle dogs; dogs, 10, 30, or 100 mg/kg/day",no AB-161-related effects
same,reproductive safety findings,"Beagle dogs; female dogs, 13-week administration, all doses",no reproductive safety findings
same,"Testis: Degeneration/Atrophy, incidence","Beagle dogs; male dogs, 10 mg/kg/day, end of main study (day 97–100), 4 examined",0
same,"Testis weight, % of body weight",Beagle dogs; [7],−9.38 percent difference from the control group means
same,"Testis weight, % of brain weight",Beagle dogs; [7],−16.13 percent difference from the control group means
same,"Testis weight, absolute value",Beagle dogs; [7],−18.03 percent difference from the control group means
same,"Epididymis: Cellular debris, Mild, incidence",Beagle dogs; [8],-
same,"Epididymis: Cellular debris, Minimal, incidence",Beagle dogs; [8],-
same,"Epididymis: Cellular debris, incidence",Beagle dogs; [8],0
same,"Epididymis: Cellularity, decreased; sperm, Marked, incidence",Beagle dogs; [8],-
same,"Epididymis: Cellularity, decreased; sperm, Mild, incidence",Beagle dogs; [8],-
same,"Epididymis: Cellularity, decreased; sperm, Minimal, incidence",Beagle dogs; [8],-
same,"Epididymis: Cellularity, decreased; sperm, incidence",Beagle dogs; [8],0
same,"Testis: Degeneration/Atrophy, Mild, incidence",Beagle dogs; [8],-
same,"Testis: Degeneration/Atrophy, Minimal, incidence",Beagle dogs; [8],-
same,"Testis: Degeneration/Atrophy, Moderate, incidence",Beagle dogs; [8],-
same,"Testis weight, % of body weight",Beagle dogs; [9],−21.93 percent difference from the control group means
same,"Testis weight, % of brain weight",Beagle dogs; [9],−30.73 percent difference from the control group means
same,"Testis weight, absolute value",Beagle dogs; [9],−34.17 percent difference from the control group means
same,"Epididymis: Cellular debris, Mild, incidence",Beagle dogs; [10],2
same,"Epididymis: Cellular debris, Minimal, incidence",Beagle dogs; [10],0
same,"Epididymis: Cellular debris, incidence",Beagle dogs; [10],2
same,"Epididymis: Cellularity, decreased; sperm, Marked, incidence",Beagle dogs; [10],0
same,"Epididymis: Cellularity, decreased; sperm, Mild, incidence",Beagle dogs; [10],2
same,"Epididymis: Cellularity, decreased; sperm, Minimal, incidence",Beagle dogs; [10],0
same,"Epididymis: Cellularity, decreased; sperm, incidence",Beagle dogs; [10],2
same,"Testis: Degeneration/Atrophy, Mild, incidence",Beagle dogs; [10],1
same,"Testis: Degeneration/Atrophy, Minimal, incidence",Beagle dogs; [10],1
same,"Testis: Degeneration/Atrophy, Moderate, incidence",Beagle dogs; [10],0
same,"Testis: Degeneration/Atrophy, incidence",Beagle dogs; [10],2
same,"Testis weight, % of body weight",Beagle dogs; [11],−12.18 percent difference from the control group means
same,"Testis weight, % of brain weight",Beagle dogs; [11],−16.10 percent difference from the control group means
same,"Testis weight, absolute value",Beagle dogs; [11],−20.62 percent difference from the control group means
same,"Epididymis: Cellular debris, Mild, incidence",Beagle dogs; [12],2
same,"Epididymis: Cellular debris, Minimal, incidence",Beagle dogs; [12],2
same,"Epididymis: Cellular debris, incidence",Beagle dogs; [12],4
same,"Epididymis: Cellularity, decreased; sperm, Marked, incidence",Beagle dogs; [12],1
same,"Epididymis: Cellularity, decreased; sperm, Mild, incidence",Beagle dogs; [12],2
same,"Epididymis: Cellularity, decreased; sperm, Minimal, incidence",Beagle dogs; [12],1
same,"Epididymis: Cellularity, decreased; sperm, incidence",Beagle dogs; [12],4
same,"Testis: Degeneration/Atrophy, Mild, incidence",Beagle dogs; [12],1
same,"Testis: Degeneration/Atrophy, Minimal, incidence",Beagle dogs; [12],2
same,"Testis: Degeneration/Atrophy, Moderate, incidence",Beagle dogs; [12],1
same,"Testis: Degeneration/Atrophy, incidence",Beagle dogs; [12],4
same,"Testis weight, % of body weight",Beagle dogs; [13],−37.79 percent difference from the control group means
same,"Testis weight, % of brain weight",Beagle dogs; [13],−43.49 percent difference from the control group means
same,"Testis weight, absolute value",Beagle dogs; [13],−42.84 percent difference from the control group means
same,"Epididymis: Cellular debris, Mild, incidence",Beagle dogs; [14],(2) 2 2 2 2
same,"Epididymis: Cellular debris, incidence",Beagle dogs; [14],(2) 2 2 2 2
same,"Epididymis: Cellularity, decreased; sperm, Moderate, incidence",Beagle dogs; [14],(2) 2 2 2 2
same,"Epididymis: Cellularity, decreased; sperm, incidence",Beagle dogs; [14],(2) 2 2 2 2
same,"Testis: Degeneration/Atrophy, Moderate, incidence",Beagle dogs; [14],(2) 2 2
same,"Testis: Degeneration/Atrophy, incidence",Beagle dogs; [14],(2) 2 2
same,testis microscopic finding,"Beagle dogs; male dogs, 30 and 100 mg/kg/day at terminal euthanasia, persisted at end of recovery at 100 mg/kg/day",degeneration/atrophy in the testis was noted
same,selectivity for HBV,[5]; HBV vs panel of RNA and DNA viruses,"> 10,000 fold"
same,activity against a panel of RNA and DNA viruses,"[5]; all ten viruses, up to the highest concentration tested at 30 μM",inactive
same,EC50,DENV2,> 30000 nM
same,EC50,HSV-1/HSV-2,> 30000 nM
same,fraction unbound AB-161 in plasma (C24h) below its EC90,[6],at least 1 log10
